One data set relates to guinea pig. Conditions: for erythema evaluation point, individual animal: group IV sensitized with DNCB; for ave. eval. (average of evaluation point) / positive ratio: positive comparison group IV sensitized with DNCB 0.1 w/v %. As to the method:
Skin-Sensitize Test (Maximization Test)
This test is carried out by Juridical Foundation “Food and Medicine Safety Center” (Hatano-shi, Kanagawa) based on “Basic view about biological safety test necessary for petition of recognition of production (import) of medical device” (13.02.2003, Consideration of Medicine No. 0213001″ and “Reference materials regarding basic view of biological safety test” (19.03.2003, Examination of medical device No. 36).
Using methanol extraction of Verte Kimax 7th Sense, biological safety evaluation is obtained. And aiming to compare with Verte 710N, skin-sensitize test (maximization test) is carried out on a guinea pig using methanol extraction of Verte Kimax 7th Sense.
At the preparation of prescribing subject, methanol extract of Verte Kimax 7th Sense (hereinafter, shortened to 7th Sense-M) or methanol extract of Verte 710N (hereinafter, shortened to 710N-M) is suspended in ethanol by proportion of 1 mL to the extract obtained 1 g of analyte used for extraction, and 100 v/v % 7th Sense-M ethanol suspension and 100 v/v % 710N-M ethanol suspension are obtained. Further, BLANK obtained from methanol alone is poured into same amount of ethanol as used at the preparation of suspension of 7th Sense-M or 710N-M and 100 v/v % blank suspensions are prepared. In first skin-sensitize test, 100 v/v % 7th Sense-M ethanol suspension and 100 v/v % 710N-M ethanol suspension are replaced with same amount of olive oil, and 100 v/v % 7th Sense-M olive oil suspension and 100 v/v % 710N-M olive oil suspension are prepared. In second skin-sensitize test, 100 v/v % 7th Sense-M ethanol suspension and 100 v/v % 710N-M ethanol suspension are replaced with same amount of olive oil, and 100 v/v % 7th Sense-M olive oil suspension and 100 v/v % 710N-M olive oil suspension are prepared. In causing, 100 v/v % 7th Sense-M ethanol suspension and 100 v/v % 710N-M ethanol suspension are prepared by adding ethanol as stepwise. Further, 100 v/v % corresponding volume blank ethanol solution is used as is.
In first skin-sensitize test (treatment first day) 10 v/v % 7th Sense-M olive oil suspension or 10 v/v % 710N-M olive oil suspension and Freund's complete adjuvant are injected by intradermal injection in upper part of shoulder bone of a guinea pig. At 7 days after treatment, 10 v/v % sodium lauryl sulfate is open spread on region including intradermal injection part, and next day (8 days after treatment) 100 v/v % 7th Sense-M olive oil suspension or 100 v/v % 710N-M olive oil suspension is blockage patched to same region as second skin-sensitize test for 48 hours. In causing (22 days after treatment), 100, 20, 4, 0.8, and 0.16 v/v % ethanol suspension of 7th Sense-M or 710N-M and 100 v/v % corresponding volume BLANK ethanol solution are blockage patched for 24 hours.
Judgment is done according to judgment standard of Draize method after 24 hours and 48 hours from removal of patches.
(numbers of positive animal in group/numbers of animal in group)×100

Data set [1] in a line: Weight of individuals in the maximization test. In kind it is in vivo, guinea pig. The text has this:
Results by Weight of Individuals

Setting [2] is: causing conc. 0.01 w/v %, judge 24 hrs.
Setting [3] is: causing conc. 0.01 w/v %, judge 48 hrs.
[4] abbreviates: causing conc. 0.1 w/v %, judge 24 hrs.
The mark [5] stands for this setting: causing conc. 0.1 w/v %, judge 48 hrs.

The structures appear in SMILES notation. Several values for one entry are separate records, joined by “and”; a condition that tells them apart may be missing. Identical values can stand only once. Like-named read-outs stand apart in the source and are kept apart here.

The values below come from patent US9267021B2 (KOSSAN SDN BHD, priority 2010, dated 2016).

For `O=[N+]([O-])c1ccc(Cl)c([N+](=O)[O-])c1` [DNCB, 1-chloro-2,4-dinitrobenzene], the “erythema evaluation point, individual animal” value in the data set on guinea pig (causing 0.01 w/v % DNCB, judge time 24 hrs.) is 3 (4×) and 4; in the data set with guinea pig (causing 0.01 w/v % DNCB, judge time 48 hrs.), 3 (3×) and 4 (2×); in the data set on guinea pig (causing 0.1 w/v % DNCB, judge time 24 hrs.), 4 (4×) and 3; in the data set with guinea pig (causing 0.1 w/v % DNCB, judge time 48 hrs.), 4. The “ave. eval. (average of evaluation point)” value was 3.8 with guinea pig (setting [2]), 4.0 in the data set on guinea pig (setting [3]), 4.8 with guinea pig (setting [4]) and 5.2 with guinea pig (setting [5]). Further, the positive ratio in the data set on guinea pig (setting [2]), with guinea pig (setting [3]), in the data set on guinea pig (setting [4]) and in the data set on guinea pig (setting [5]) was 100 throughout. For the same compound, the weight of individual was 472 and 420 and 444 and 453 and 440 in data set [1] (8th day); 521 and 426 and 470 and 496 and 485 in data set [1] (15th day); 572 and 485 and 521 and 536 and 529 in data set [1] (22nd day); 590 and 481 and 533 and 544 and 541 in data set [1] (25th day); 430 and 375 and 396 and 416 and 395 in data set [1] (first day); 356 and 333 and 354 and 369 and 344 in data set [1] (starting date of previous test). The “weight, group average” value in data set [1] (8th day) was 446; in data set [1] (15th day) it was 480; in data set [1] (22nd day) it was 529; in data set [1] (25th day), 538; in data set [1] (first day), 402; in data set [1] (starting date of previous test), 349.
